Results published in patent publication US6803372B2, “Spiro compounds” (Banyu Pharmaceutical Co., Ltd., priority 1999, dated 2004).

system: not given; assay: not given; conditions: not given

| SMILES | melting point |
| --- | --- |
| Cc1cccc2sc(NC(=O)N3CCC4(CC3)NC(=O)Cc3ccccc34)nc12 [Example 20, 3,4-Dihydro-N-(4-methyl-2-benzothiazolyl)-3-oxospiro[isoquinoline-1(2H),4′-piperidine]-1′-carboxamide] | 144 to 146 °C |
| O=C1Cc2ccccc2C2(CCN(C(=O)Nc3ccc(Cl)c(Cl)c3)CC2)N1 [Example 16, N-(3,4-dichlorophenyl)-3,4-dihydro-3-oxospiro[isoquinoline-1(2H),4′-piperidine]-1′-carboxamide] | > 300 °C |
| O=C1Cc2ccccc2C2(CCN(C(=O)Nc3cn(-c4cccc5ccoc45)cn3)CC2)N1 [Example 13, N-[1-(7-benzo[b]furanyl)-4-imidazolyl]-3,4-dihydro-3-oxospiro[isoquinoline-1(2H),4′-piperidine]-1′-carboxamide] | 192 to 194 °C |
| O=C1Cc2ccccc2C2(CCN(C(=O)Nc3cc(-c4ccccc4)no3)CC2)N1 [Example 12, 3,4-Dihydro-3-oxo-N-(3-phenyl-5-isoxazolyl)spiro[isoquinoline-1(2H),4′-piperidine]-1′-carboxamide] | 239 to 241 °C |
| Cc1ccc2ccc(NC(=O)N3CCC4(CC3)OC(=O)c3ccccc34)nc2c1 [Example 24, N-(7-methyl-2-quinolyl)-3-oxospiro[isobenzofuran-1(3H),4′-piperidine]-1′-carboxamide] | 178 to 180 °C |
| O=C1NC2(CCN(C(=O)Nc3cnc(-c4ccccc4)cn3)CC2)c2ccccc21 [Example 2, 3-oxo-N-(5-phenyl-2-pyrazinyl)spiro[isoindoline-1,4′-piperidine]-1′-carboxamide] | 286 to 287 °C |
| CC(C)=Cc1cnc(NC(=O)N2CCC3(CC2)NC(=O)Cc2ccccc23)cn1 [Example 11, 3,4-Dihydro-N-[5-(2-methyl-1-propenyl)-2-pyrazinyl]-3-oxospiro[isoquinoline-1(2H),4′-piperidine]-1′-carboxamide] | 232.9 to 236.5 °C |
| O=C1Cc2ccccc2C2(CCN(C(=O)Nc3ccc(C(=O)c4ccccn4)cc3)CC2)N1 [Example 15, 3,4-Dihydro-3-oxo-N-[4-(2-pyridylcarbonyl)phenyl]spiro[isoquinoline-1(2H),4′-piperidine]-1′-carboxamide] | 162 to 164 °C |
| CC(=O)c1ccc(NC(=O)N2CCC3(CC2)NC(=O)Cc2ccccc23)cc1 [Example 8, N-(4-acetylphenyl)-3,4-dihydro-3-oxospiro[isoquinoline-1(2H),4′-piperidine]-1′-carboxamide] | > 300 °C |
| O=C1Cc2ccccc2C2(CCN(C(=O)Nc3nc4cc(Cl)ccc4o3)CC2)N1 [Example 21, N-(5-chloro-2-benzoxazolyl)-3,4-dihydro-3-oxospiro[isoquinoline-1(2H),4′-piperidine]-1′-carboxamide] | 256 to 258 °C |
| Cc1ccc2ccc(NC(=O)N3CCC4(CC3)NC(=O)Cc3ccccc34)nc2c1 [Example 7, 3,4-Dihydro-N-(7-methyl-2-quinolyl)-3-oxospiro[isoquinoline-1(2H),4′-piperidine]-1′-carboxamide] | 216 to 218 °C |
| O=C1Cc2ccccc2C2(CCN(C(=O)Nc3cn(-c4cccc(OC(F)F)c4)cn3)CC2)N1 [Example 14, N-[1-(3-difluoromethoxyphenyl)-4-imidazolyl]-3,4-dihydro-3-oxospiro[isoquinoline-1(2H),4′-piperidine]-1′-carboxamide] | 161 to 163 °C |
| O=C1Cc2ccccc2C2(CCN(C(=O)Nc3cnc(-c4ccccn4)cn3)CC2)N1 [Example 19, 3,4-Dihydro-3-oxo-N-[5-(2-pyridyl)-2-pyrazinyl]spiro[isoquinoline-1(2H),4′-piperidine]-1′-carboxamide] | 223 to 225 °C |
| O=C1Cc2ccccc2C2(CCN(C(=O)Nc3cn(-c4cccc(Cl)c4)cn3)CC2)N1 [Example 17, N-[1-(3-chlorophenyl)-4-imidazolyl]-3,4-dihydro-3-oxospiro[isoquinoline-1(2H),4′-piperidine]-1′-carboxamide] | 255 to 258 °C |
| O=C1Cc2ccccc2C2(CCN(C(=O)Nc3ncc(-c4ccccc4)s3)CC2)N1 [Example 18, 3,4-Dihydro-3-oxo-N-(5-phenyl-2-thiazolyl)spiro[isoquinoline-1(2H),4′-piperidine]-1′-carboxamide] | > 300 °C |
| O=C1Cc2ccccc2C2(CCN(C(=O)Nc3cnc(-c4ccccc4)cn3)CC2)N1 [Example 6, 3,4-Dihydro-3-oxo-N-(5-phenyl-2-pyrazinyl)spiro[isoquinoline-1(2H),4′-piperidine]-1′-carboxamide] | 237 to 239 °C |
| Cc1ccc2ccc(NC(=O)N3CCC4(CC3)NC(=O)c3ccccc34)nc2c1 [Example 3, N-(7-methyl-2-quinolyl)-3-oxospiro[isoindoline-1,4′-piperidine]-1′-carboxamide] | 194 to 196 °C |
| O=C1Cc2ccccc2C2(CCN(C(=O)Nc3ccc4c(c3)CCCC4=O)CC2)N1 [Example 10, 3,4-Dihydro-3-oxo-N-(5-oxo-5,6,7,8-tetrahydro-2-naphthyl)spiro[isoquinoline-1(2H),4′-piperidine]-1′-carboxamide] | 220.5 to 222.2 °C |

More lines, now with the values ahead:

| melting point | SMILES |
| --- | --- |
| 251 to 254 °C | O=C1OC2(CCN(C(=O)Nc3cn(-c4cnc5ccccc5c4)cn3)CC2)c2ccccc21 [Example 28, 3-Oxo-N-[1-(3-quinolyl)-4-imidazolyl]spiro[isobenzofuran-1(3H),4′-piperidine]-1′-carboxamide] |
| 255 to 258 °C | O=C1OC2(CCN(C(=O)Nc3cc(-c4ccc(Cl)cc4)[nH]n3)CC2)c2ccccc21 [Example 30, N-[5-(4-chlorophenyl)-3-pyrazolyl]-3-oxospiro[isobenzofuran-1(3H),4′-piperidine]-1′-carboxamide] |
| 99 to 100 °C | O=C1OC2(CCN(C(=O)Nc3cn(-c4cccc(CCO)c4)cn3)CC2)c2ccccc21 [Example 37, N-{1-[3-(2-hydroxyethyl)phenyl]-4-imidazolyl}-3-oxospiro[isobenzofuran-1(3H),4′-piperidine]-1′-carboxamide] |
| 128 to 131 °C | O=C1Cc2ccccc2C2(CCN(C(=O)Nc3cnc(C(=O)c4ccccc4)cn3)CC2)O1 [Example 46, N-(5-benzoyl-2-pyrazinyl)-3,4-dihydro-3-oxospiro[1H-2-benzopyran-1,4′-piperidine]-1′-carboxamide] |
| > 300 °C | O=C1OC2(CCC(C(=O)Nc3cn(-c4cnc5ccccc5c4)cn3)CC2)c2ccccc21 (stereo not drawn) [Example 55, Trans-3′-oxo-N-[1-(3-quinolyl)-4-imidazolyl]spiro[cyclohexane-1,1′(3′H)-isobenzofuran]-4-carboxamide] |
| 193 °C | O=C1OC2(CCN(C(=O)Nc3ccc4ncc(OC(F)F)cc4n3)CC2)c2ccccc21 [Example 35, N-(7-difluoromethoxypyrido[3,2-b]pyridin-2-yl)-3-oxospiro[isobenzofuran-1(3H),4′-piperidine]-1′-carboxamide] |
| 221 to 223 °C | CCn1ccnc1-c1ccc(NC(=O)N2CCC3(CC2)OC(=O)c2ccccc23)cc1 [Example 38, N-[4-(1-ethyl-2-imidazolyl)phenyl]-3-oxospiro[isobenzofuran-1(3H),4′-piperidine]-1′-carboxamide] |
| 208 to 210 °C | COc1cccc(-n2cnc(NC(=O)N3CCC4(CC3)OC(=O)c3ccccc34)c2)c1 [Example 39, N-[1-(3-methoxyphenyl)-4-imidazolyl]-3-oxospiro[isobenzofuran-1(3H),4′-piperidine]-1′-carboxamide] |
| 253 to 257 °C | O=C1OC2(CCN(C(=O)Nc3cc(-c4cnc5ccccc5c4)[nH]n3)CC2)c2ccccc21 [Example 31, 3-oxo-N-[5-(3-quinolyl)-3-pyrazolyl]spiro[isobenzofuran-1(3H),4′-piperidine]-1′-carboxamide] |

target: T1, human NPY Y5 receptor (Homo sapiens, UniProt Q15761); assay: NPY binding inhibition test (Pharmacological Test 1); conditions: [125I]peptideYY, membrane sample from cells expressing NPY Y5 receptor, 25° C., 2 hours; read-out: IC50 of the test compound against specific peptideYY binding
T1 construct: expressed in transfected cells; host or cells: COS-7, CHO and LM(tk-)
T1 sequence (Q15761 1-445): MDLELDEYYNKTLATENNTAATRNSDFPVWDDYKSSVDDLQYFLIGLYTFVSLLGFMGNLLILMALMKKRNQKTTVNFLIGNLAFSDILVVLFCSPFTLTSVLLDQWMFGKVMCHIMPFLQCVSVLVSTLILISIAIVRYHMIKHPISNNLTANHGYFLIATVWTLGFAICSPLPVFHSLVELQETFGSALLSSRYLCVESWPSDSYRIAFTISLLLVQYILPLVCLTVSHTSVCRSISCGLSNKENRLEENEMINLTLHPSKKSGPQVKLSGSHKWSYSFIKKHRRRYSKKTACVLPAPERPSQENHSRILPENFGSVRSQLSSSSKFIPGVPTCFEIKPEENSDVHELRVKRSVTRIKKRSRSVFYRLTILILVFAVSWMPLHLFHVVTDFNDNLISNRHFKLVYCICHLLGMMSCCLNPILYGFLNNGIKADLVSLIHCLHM
Text: Pharmacological Test 1 (NPY Binding Inhibition Test)
cDNA sequence encoding human NPY Y5 receptor [International patent publication number WO96/16542] was cloned into expression vectors pcDNA3, pRc/RSV (made by Invitrogen Inc.) and pCI-neo (made by Promega Inc.). This obtained expression vectors were transfected to host cells COS-7, CHO and LM(tk-) (American Type Culture Collection) by cationic lipid method [Proceedings of the National Academy of Sciences of the United States of America, 84: 7413(1987)] to give NPY Y5 receptor expression cells.
A membrane sample prepared from the cells which expressed NPY Y5 receptor was incubated together with a test compound and [^125I]peptideYY (NEN) (20,000 cpm) in an assay buffer (25 mM Tris buffer, pH7.4, containing 10 mM magnesium chloride, 1 mM phenylmethylsulfonyl fluoride, 0.1% bacitracin and 0.5% bovine serum albumin) at 25° C. for 2 hours, then filtered through a glass filter GF/C and washed with 5 mM Tris buffer (pH7.4) containing 0.3% BSA. The radioactivity of the cake on the glass filter was measured. Nonspecific binding was measured in the presence of 1 μM peptideYY and a 50% Inhibitory Concentration (IC50) of the test compound against specific peptideYY binding was determined [Endocrinology, 131: 2090(1992)].

| IC50 | SMILES |
| --- | --- |
| 0.48 nM | O=C1OC2(CCC(C(=O)Nc3ncc(-c4ccccc4)cn3)CC2)c2ccccc21 (stereo not drawn) [Example 50, Trans-3′-oxo-N-(5-phenyl-2-pyrimidinyl)spiro[cyclohexane-1,1′(3′H)-isobenzofuran]-4-carboxamide] |
| 1.2 nM | O=C(c1ccccc1)c1ccc(NC(=O)N2CCC3(CC2)NC(=O)c2ccccc23)cc1 [Example 1, N-(4-benzoylphenyl)-3-oxospiro[isoindoline-1,4′-piperidine]-1′-carboxamide] |
| 0.59 nM | O=C1OC2(CCC(C(=O)Nc3cn(-c4cnc5ccccc5c4)cn3)CC2)c2ccccc21 (stereo not drawn) [Example 55, Trans-3′-oxo-N-[1-(3-quinolyl)-4-imidazolyl]spiro[cyclohexane-1,1′(3′H)-isobenzofuran]-4-carboxamide] |
| 1.5 nM | O=C1Cc2ccccc2C2(CCN(C(=O)Nc3ccc(C(=O)c4ccccc4)cc3)CC2)O1 [Example 44, N-(4-benzoylphenyl)-3,4-dihydro-3-oxospiro[1H-2-benzopyran-1,4′-piperidine]-1′-carboxamide] |
